Results: publication PMC12858467, “In vitro toxicokinetics and metabolic profiling of methoxycathinones and methylthiocathinones using human liver systems and hyphenated mass spectrometry” (Archives of Toxicology, 2025)

What was measured:
Format in all cases: in vitro ADME
Settings in all cases: 30 min, 37 °C
[1] = target: T1, CYP1A2 (Homo sapiens, UniProt P05177); assay: Monooxygenases activity screening, CYP1A2; parameters: key: +, detected; -, not detected
T1 construct: purchased Discovery Life Sciences (Huntsville, LA, USA); host or cells: baculovirus-infected insect cells (microsomes, Supersomes)
T1 sequence (P05177 1-516): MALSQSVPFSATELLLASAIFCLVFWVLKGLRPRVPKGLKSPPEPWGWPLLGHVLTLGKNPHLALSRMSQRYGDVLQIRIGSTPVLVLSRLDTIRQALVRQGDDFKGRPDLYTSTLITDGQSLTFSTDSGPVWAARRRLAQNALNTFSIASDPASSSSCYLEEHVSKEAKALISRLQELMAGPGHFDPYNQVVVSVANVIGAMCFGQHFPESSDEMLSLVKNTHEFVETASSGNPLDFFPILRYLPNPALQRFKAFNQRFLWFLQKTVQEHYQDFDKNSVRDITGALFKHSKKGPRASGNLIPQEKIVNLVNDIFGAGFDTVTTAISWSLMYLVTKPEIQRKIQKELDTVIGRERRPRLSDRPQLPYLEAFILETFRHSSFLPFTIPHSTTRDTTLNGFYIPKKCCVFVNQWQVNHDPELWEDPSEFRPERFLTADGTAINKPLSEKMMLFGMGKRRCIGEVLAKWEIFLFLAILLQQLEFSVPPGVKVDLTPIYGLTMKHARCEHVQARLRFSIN
Protocol: (§1) For incubations with CYP2A6 or CYP2C9, phosphate buffer was replaced with 90 mM Tris buffer, according to the manufacturer’s guideline. […] All incubations were done in duplicate and concentrations were fixed. Verapamil (25 µM) was incubated as a positive control.

[2] = target: T2, CYP2A6 (Homo sapiens, UniProt P11509); assay: Monooxygenases activity screening, CYP2A6; parameters: key: +, detected; -, not detected
T2 construct: purchased Discovery Life Sciences (Huntsville, LA, USA); host or cells: baculovirus-infected insect cells (microsomes, Supersomes)
T2 sequence (P11509 1-494): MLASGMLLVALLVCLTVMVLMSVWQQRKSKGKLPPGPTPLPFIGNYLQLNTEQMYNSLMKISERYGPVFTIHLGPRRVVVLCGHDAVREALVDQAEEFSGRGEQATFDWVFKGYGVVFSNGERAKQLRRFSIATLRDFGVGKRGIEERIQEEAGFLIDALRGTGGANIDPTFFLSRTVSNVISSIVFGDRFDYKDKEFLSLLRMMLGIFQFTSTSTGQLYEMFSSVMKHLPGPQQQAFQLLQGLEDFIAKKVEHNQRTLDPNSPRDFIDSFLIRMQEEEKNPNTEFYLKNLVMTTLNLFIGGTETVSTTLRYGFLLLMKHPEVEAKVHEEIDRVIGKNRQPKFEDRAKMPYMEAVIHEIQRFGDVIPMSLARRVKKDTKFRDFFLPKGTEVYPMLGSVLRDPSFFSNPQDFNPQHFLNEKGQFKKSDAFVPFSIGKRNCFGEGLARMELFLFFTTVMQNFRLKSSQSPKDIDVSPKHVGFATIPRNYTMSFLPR
Protocol: as §1

[3] = target: T3, CYP2B6 (Homo sapiens, UniProt P20813); assay: Monooxygenases activity screening, CYP2B6; parameters: key: +, detected; -, not detected
T3 construct: purchased Discovery Life Sciences (Huntsville, LA, USA); host or cells: baculovirus-infected insect cells (microsomes, Supersomes)
T3 sequence (P20813 1-491): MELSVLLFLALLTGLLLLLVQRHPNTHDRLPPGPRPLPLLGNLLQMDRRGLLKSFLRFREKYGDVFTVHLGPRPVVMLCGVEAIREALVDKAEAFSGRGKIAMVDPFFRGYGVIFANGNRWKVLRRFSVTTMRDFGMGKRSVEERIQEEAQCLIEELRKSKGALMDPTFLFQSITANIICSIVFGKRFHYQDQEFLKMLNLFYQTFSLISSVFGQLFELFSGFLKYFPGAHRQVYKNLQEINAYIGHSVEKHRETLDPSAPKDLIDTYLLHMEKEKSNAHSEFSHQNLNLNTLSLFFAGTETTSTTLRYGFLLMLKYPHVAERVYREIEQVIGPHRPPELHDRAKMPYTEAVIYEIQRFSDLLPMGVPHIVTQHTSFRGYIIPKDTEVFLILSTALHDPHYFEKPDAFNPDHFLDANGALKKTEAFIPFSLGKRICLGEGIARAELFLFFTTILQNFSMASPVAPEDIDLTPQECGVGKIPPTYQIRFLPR
Protocol: as §1

[4] = target: T4, CYP2C8 (Homo sapiens, UniProt P10632); assay: Monooxygenases activity screening, CYP2C8; parameters: key: +, detected; -, not detected
T4 construct: purchased Discovery Life Sciences (Huntsville, LA, USA); host or cells: baculovirus-infected insect cells (microsomes, Supersomes)
T4 sequence (P10632 1-490): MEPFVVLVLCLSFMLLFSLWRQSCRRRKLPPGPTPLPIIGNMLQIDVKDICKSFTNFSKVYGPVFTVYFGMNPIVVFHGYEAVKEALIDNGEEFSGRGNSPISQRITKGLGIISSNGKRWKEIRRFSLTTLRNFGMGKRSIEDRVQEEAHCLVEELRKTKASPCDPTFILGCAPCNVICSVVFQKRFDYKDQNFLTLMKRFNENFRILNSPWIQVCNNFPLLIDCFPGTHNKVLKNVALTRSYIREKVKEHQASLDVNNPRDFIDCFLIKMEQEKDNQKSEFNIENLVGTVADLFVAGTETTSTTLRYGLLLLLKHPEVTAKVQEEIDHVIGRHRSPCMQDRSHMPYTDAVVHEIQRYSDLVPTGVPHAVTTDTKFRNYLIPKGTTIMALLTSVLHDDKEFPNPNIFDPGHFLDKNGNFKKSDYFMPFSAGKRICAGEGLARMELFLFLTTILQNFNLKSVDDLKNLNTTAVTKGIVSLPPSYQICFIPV
Protocol: as §1

[5] = target: T5, CYP2C9 (Homo sapiens, UniProt P11712); assay: Monooxygenases activity screening, CYP2C9; parameters: key: +, detected; -, not detected
T5 construct: purchased Discovery Life Sciences (Huntsville, LA, USA); host or cells: baculovirus-infected insect cells (microsomes, Supersomes)
Protocol: as §1

[6] = target: T6, CYP2C19 (Homo sapiens, UniProt P33261); assay: Monooxygenases activity screening, CYP2C19; parameters: key: +, detected; -, not detected
T6 construct: purchased Discovery Life Sciences (Huntsville, LA, USA); host or cells: baculovirus-infected insect cells (microsomes, Supersomes)
Protocol: as §1

[7] = target: T7, CYP2D6 (Homo sapiens, UniProt P10635); assay: Monooxygenases activity screening, CYP2D6; parameters: key to one-step metabolite detected in CYP2D6 incubation: +, detected; -, not detected
T7 construct: purchased Discovery Life Sciences (Huntsville, LA, USA); host or cells: baculovirus-infected insect cells (microsomes, Supersomes)
Protocol: as §1

[8] = target: T8, CYP2E1 (Homo sapiens, UniProt P05181); assay: Monooxygenases activity screening, CYP2E1; parameters: key: +, detected; -, not detected
T8 construct: purchased Discovery Life Sciences (Huntsville, LA, USA); host or cells: baculovirus-infected insect cells (microsomes, Supersomes)
Protocol: as §1

[9] = target: T9, CYP3A4 (Homo sapiens, UniProt P08684); assay: Monooxygenases activity screening, CYP3A4; parameters: key: +, detected; -, not detected
T9 construct: purchased Discovery Life Sciences (Huntsville, LA, USA); host or cells: baculovirus-infected insect cells (microsomes, Supersomes)
Protocol: as §1

[10] = target: T10, CYP3A5 (Homo sapiens, UniProt P20815); assay: Monooxygenases activity screening, CYP3A5; parameters: key: +, detected; -, not detected
T10 construct: purchased Discovery Life Sciences (Huntsville, LA, USA); host or cells: baculovirus-infected insect cells (microsomes, Supersomes)
Protocol: as §1

[11] = target: T11, flavin-containing monooxygenase 3 (FMO3) (Homo sapiens, UniProt P31513); assay: Monooxygenases activity screening, FMO3; parameters: key: +, detected; -, not detected
T11 construct: purchased Discovery Life Sciences (Huntsville, LA, USA); host or cells: baculovirus-infected insect cells (microsomes, Supersomes)
T11 sequence (P31513 1-532): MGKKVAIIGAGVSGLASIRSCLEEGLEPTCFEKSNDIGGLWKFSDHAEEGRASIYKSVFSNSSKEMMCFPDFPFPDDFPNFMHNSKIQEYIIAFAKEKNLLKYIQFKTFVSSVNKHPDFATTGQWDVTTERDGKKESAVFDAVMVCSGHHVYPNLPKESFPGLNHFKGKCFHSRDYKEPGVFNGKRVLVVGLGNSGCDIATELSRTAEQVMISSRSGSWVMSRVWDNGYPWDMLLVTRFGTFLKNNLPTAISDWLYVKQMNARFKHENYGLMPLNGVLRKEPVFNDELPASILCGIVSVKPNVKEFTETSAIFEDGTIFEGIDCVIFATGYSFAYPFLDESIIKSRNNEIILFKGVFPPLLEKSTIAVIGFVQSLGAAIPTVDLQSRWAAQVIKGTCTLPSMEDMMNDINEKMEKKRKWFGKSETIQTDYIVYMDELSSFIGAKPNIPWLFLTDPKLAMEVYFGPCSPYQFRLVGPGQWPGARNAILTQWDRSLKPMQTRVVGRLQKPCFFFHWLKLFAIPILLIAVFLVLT
Protocol: as §1

[12] = substrate 4MeO-NE-BP 25 µM, Table S3.1
[13] = substrate 4MeS-NE-BP 25 µM, Table S3.4

T10 sequence (P20815 whole entry): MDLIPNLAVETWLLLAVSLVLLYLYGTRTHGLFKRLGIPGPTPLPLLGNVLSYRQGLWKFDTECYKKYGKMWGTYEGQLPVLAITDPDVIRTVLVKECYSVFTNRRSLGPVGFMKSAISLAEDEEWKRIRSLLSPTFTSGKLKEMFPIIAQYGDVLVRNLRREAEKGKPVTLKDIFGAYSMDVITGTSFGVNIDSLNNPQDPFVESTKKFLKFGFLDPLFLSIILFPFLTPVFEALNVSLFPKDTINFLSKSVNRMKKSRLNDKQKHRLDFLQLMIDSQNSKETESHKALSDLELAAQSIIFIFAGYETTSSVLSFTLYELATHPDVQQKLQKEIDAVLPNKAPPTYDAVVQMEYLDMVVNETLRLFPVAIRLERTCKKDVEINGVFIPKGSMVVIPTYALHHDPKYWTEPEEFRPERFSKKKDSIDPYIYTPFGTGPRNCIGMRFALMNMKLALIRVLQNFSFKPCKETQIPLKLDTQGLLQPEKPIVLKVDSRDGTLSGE
T7 sequence (P10635 whole entry): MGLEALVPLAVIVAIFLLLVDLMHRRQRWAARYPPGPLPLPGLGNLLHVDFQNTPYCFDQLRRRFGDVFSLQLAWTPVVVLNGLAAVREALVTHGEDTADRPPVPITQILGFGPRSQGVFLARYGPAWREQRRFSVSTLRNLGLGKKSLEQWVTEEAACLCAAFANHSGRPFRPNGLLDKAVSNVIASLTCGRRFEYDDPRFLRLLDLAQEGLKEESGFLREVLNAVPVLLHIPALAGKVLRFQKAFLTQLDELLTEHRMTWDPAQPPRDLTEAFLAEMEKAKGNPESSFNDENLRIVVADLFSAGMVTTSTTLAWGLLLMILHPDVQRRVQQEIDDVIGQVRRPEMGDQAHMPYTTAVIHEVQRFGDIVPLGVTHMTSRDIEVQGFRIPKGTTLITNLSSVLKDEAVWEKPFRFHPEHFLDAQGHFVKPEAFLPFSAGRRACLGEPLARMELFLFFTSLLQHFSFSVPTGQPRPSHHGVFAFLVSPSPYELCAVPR
T6 sequence (P33261 whole entry): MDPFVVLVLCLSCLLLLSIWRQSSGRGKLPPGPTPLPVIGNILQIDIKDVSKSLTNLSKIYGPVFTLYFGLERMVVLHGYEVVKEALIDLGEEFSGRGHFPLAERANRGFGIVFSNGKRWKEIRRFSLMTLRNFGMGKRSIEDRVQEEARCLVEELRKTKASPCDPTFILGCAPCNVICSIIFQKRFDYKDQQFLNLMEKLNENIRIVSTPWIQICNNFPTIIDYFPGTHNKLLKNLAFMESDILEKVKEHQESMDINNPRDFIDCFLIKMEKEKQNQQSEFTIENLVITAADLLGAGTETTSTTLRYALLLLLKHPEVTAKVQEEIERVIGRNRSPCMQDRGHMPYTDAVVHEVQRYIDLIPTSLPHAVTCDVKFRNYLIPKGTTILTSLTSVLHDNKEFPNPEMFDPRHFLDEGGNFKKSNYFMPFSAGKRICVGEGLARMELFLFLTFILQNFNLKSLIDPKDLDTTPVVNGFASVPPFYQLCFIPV
T8 sequence (P05181 whole entry): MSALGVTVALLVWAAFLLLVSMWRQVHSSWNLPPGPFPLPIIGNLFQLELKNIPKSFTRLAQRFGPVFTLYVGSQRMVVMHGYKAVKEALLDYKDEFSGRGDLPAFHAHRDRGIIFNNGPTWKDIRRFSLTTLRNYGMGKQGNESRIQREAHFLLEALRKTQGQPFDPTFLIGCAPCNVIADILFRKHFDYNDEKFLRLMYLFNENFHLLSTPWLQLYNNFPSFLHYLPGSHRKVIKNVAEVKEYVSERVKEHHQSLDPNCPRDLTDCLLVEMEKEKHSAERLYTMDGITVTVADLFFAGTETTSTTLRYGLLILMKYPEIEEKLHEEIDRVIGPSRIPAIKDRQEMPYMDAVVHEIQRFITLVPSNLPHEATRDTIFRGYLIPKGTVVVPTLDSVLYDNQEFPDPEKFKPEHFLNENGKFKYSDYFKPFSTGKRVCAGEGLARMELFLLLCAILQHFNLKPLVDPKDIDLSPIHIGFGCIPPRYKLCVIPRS
T9 sequence (P08684 whole entry): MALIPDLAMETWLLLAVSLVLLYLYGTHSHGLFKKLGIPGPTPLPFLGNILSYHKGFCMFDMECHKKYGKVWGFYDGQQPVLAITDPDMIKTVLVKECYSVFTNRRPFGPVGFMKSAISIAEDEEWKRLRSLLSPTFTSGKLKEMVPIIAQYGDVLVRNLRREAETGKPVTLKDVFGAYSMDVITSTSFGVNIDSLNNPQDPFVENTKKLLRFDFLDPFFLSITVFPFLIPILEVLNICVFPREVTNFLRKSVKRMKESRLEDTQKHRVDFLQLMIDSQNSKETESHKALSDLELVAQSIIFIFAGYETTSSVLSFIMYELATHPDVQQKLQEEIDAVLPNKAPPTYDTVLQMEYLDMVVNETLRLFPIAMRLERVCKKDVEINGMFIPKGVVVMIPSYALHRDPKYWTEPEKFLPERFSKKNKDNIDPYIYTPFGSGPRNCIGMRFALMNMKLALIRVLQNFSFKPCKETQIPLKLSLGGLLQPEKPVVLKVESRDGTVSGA
T5 sequence (P11712 whole entry): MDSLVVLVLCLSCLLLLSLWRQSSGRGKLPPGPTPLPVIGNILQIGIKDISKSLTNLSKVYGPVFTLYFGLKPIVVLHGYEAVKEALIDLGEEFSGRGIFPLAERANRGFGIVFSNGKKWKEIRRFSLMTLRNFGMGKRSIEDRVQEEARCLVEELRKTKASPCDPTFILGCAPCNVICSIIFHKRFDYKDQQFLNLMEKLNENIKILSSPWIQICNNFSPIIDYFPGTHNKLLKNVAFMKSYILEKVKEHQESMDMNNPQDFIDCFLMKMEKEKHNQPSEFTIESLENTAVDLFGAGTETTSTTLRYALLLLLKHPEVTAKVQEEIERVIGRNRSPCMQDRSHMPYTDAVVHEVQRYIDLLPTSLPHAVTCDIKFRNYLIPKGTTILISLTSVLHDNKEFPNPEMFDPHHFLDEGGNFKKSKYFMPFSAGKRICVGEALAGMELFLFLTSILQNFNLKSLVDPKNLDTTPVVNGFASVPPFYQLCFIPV

SMILES	one-step metabolite detected in CYP1A2 incubation [1, 12]	one-step metabolite detected in CYP2A6 incubation [2, 12]	one-step metabolite detected in CYP2B6 incubation [3, 12]	one-step metabolite detected in CYP2C8 incubation [4, 12]	one-step metabolite detected in CYP2C9 incubation [5, 12]	one-step metabolite detected in CYP2C19 incubation [6, 12]	one-step metabolite detected in CYP2D6 incubation [7, 12]	one-step metabolite detected in CYP2E1 incubation [8, 12]	one-step metabolite detected in CYP3A4 incubation [9, 12]	one-step metabolite detected in CYP3A5 incubation [10, 12]	one-step metabolite detected in FMO3 incubation [11, 12]	other results
CCC(N)C(=O)c1ccc(OC)cc1 (centres unmarked) [MO1.3]	-	-	+	-	-	+	-	-	+	-	-	
CCC(C(=O)c1ccc(OC)cc1)N(O)CC (centres unmarked) [MO1.4]	+	-	+	+	-	+	+	-	+	+	+	
CCC(N)C(=O)c1ccc(SC)cc1 (centres unmarked) [MT1.3]												one-step metabolite detected in CYP1A2 incubation [1, 13]: +; one-step metabolite detected in CYP2A6 incubation [2, 13]: -; one-step metabolite detected in CYP2B6 incubation [3, 13]: +; one-step metabolite detected in CYP2C8 incubation [4, 13]: +; one-step metabolite detected in CYP2C9 incubation [5, 13]: -; one-step metabolite detected in CYP2C19 incubation [6, 13]: +; one-step metabolite detected in CYP2D6 incubation [7, 13]: +; one-step metabolite detected in CYP2E1 incubation [8, 13]: -; one-step metabolite detected in CYP3A4 incubation [9, 13]: +; one-step metabolite detected in CYP3A5 incubation [10, 13]: +; one-step metabolite detected in FMO3 incubation [11, 13]: -
CCNC(CC)C(=O)c1ccc(O)cc1 (centres unmarked) [MO1.1]	+	-	-	-	-	+	+	-	-	-	-	
